pEC50: −log10 of the molar value. Read-outs that look alike come from different tables or passages of the source.
Tests used:
Male Sprague-Dawley rats = assay: Effect on energy expenditure of rats; assay type: in vivo; conditions: percentage of rate of rats dosed with water; for response vs control in vivo at 3.6 mg/kg / response vs control in vivo at 8.9 mg/kg / response vs control in vivo at 32.6 mg/kg / response vs control in vivo at 7.1 mg/kg / response vs control in vivo at 3.7 mg/kg / response vs control in vivo at 7.2 mg/kg / response vs control in vivo at 4.3 mg/kg / response vs control in vivo at 4 mg/kg / response vs control in vivo at 8.2 mg/kg / response vs control in vivo at 4.1 mg/kg / response vs control in vivo at 21.6 mg/kg: Rattus norvegicus, po; for response vs control in vivo at 8.9 mg/kg: 8.9 mg/kg p.o.; for response vs control in vivo at 32.6 mg/kg: 32.6 mg/kg p.o.; for response vs control in vivo at 7.1 mg/kg: 7.1 mg/kg p.o.; for response vs control in vivo at 3.7 mg/kg: 3.7 mg/kg p.o.; for response vs control in vivo at 7.2 mg/kg: 7.2 mg/kg p.o.; for response vs control in vivo at 4.3 mg/kg: 4.3 mg/kg p.o.; for response vs control in vivo at 4 mg/kg: 4.0 mg/kg p.o.; for response vs control in vivo at 8.2 mg/kg: 8.2 mg/kg p.o.; for response vs control in vivo at 4.1 mg/kg: 4.1 mg/kg p.o.; for response vs control in vivo at 21.6 mg/kg: 21.6 mg/kg p.o.
Protocol: Water was provided ad lib at all times. The compounds were administered orally in water to 3 or 4 rats. A further 4 rats were dosed orally with water. The rats were placed in boxes through which air was drawn and the oxygen content of the air leaving the boxes was measured. The energy expenditure of the rats was calculated for 3 hours and for 21 hours after dosing from the volume of air leaving the boxes and its oxygen content, following the principles described by J.B. de V. Weir, J. Physiol. (London) 109, 1-9 (1949). The results are expressed as a percentage of the rate of energy expenditure of the rats dosed with water.

[1] = system: electrically paced left atrium; assay: Isolated rat atria: tension of the electrically paced left atrium; conditions: for pEC50: molar concentration producing 50% of the compound's own maximum response; for Emax: read-out: Tension Intrinsic Activity
Protocol: (§1) Sprague-Dawley male rats (300-400g) are killed and the right and left atria dissected out independently and mounted on a combined tissue holder/electrode. […] The rate of the spontaneously beating right atrium (via an isometric transducer and a ratemeter) and the tension of the electrically paced left atrium (via an isometric transducer) are recorded on a M19 chart recorder.
(§2) After an initial stabilization period, the tissues are exposed to a maximal concentration of isoprenaline (10-^7M). The tissues are then washed several times until rate and tension return to baseline level. A dose-response curve to the test compound is then carried out.
(§3) Responses to each concentration of test compound are expressed as a percentage of the maximal responses to isoprenaline. Results are given in the form of (a) intrinsic activity (maximal effect of test compound with respect to isoprenaline maximum, i.e. isoprenaline intrinsic activity = 1) and (b) EC50 (the molar concentration at which the test compound produces 50% of its own maximum response).

[2] = system: spontaneously beating right atrium; assay: Isolated rat atria: rate of the spontaneously beating right atrium; conditions: for pEC50: molar concentration producing 50% of the compound's own maximum response; for Emax: read-out: Rate Intrinsic Activity
Protocol: as §1, §2, §3

[3] = Krebs solution at 32°C, maximal effect relative to isoprenaline maximum (isoprenaline = 1)
[4] = Rattus norvegicus, Krebs solution at 32°C, maximal effect relative to isoprenaline maximum (isoprenaline = 1)
[5] = Rattus norvegicus, Krebs solution at 32°C
[6] = 3 h, 0-3h after dosing, read-out: Mean Energy Expenditure 0-3h
[7] = 21 h, 0-21h after dosing, read-out: Mean Energy Expenditure 0-21h
[8] = Rattus norvegicus, organ bath at 29°C, maximal effect relative to isoprenaline maximum (isoprenaline = 1)
[9] = Rattus norvegicus, organ bath at 29°C

CC(Cc1ccc2c(c1)NC(=O)CO2)NCC(O)c1cccc(Cl)c1 (centres unmarked) [8 (14:86), 6-[2-[2-(3-Chlorophenyl)-2-hydroxyethylamino]-2-methylethyl]-2H-1,4-benzoxazin-3-(4H)-one]
response vs control in vivo at 3.6 mg/kg (Male Sprague-Dawley rats; 3 h, 3.6 mg/kg p.o., 0-3h after dosing, read-out: Mean Energy Expenditure 0-3h): 125% | response vs control in vivo at 3.6 mg/kg (Male Sprague-Dawley rats; 21 h, 3.6 mg/kg p.o., 0-21h after dosing, read-out: Mean Energy Expenditure 0-21h): 105% | Tension Intrinsic Activity [1, 3]: 0.20 | pEC50 ([1]; Krebs solution at 32°C): 5.42 | Rate Intrinsic Activity [2, 3]: 0.16 | pEC50 ([2]; Krebs solution at 32°C): 6.12

CC(Cc1ccc2c(c1)NC(=O)CO2)NCC(O)c1cccc(Cl)c1 (centres unmarked) [8 (82:18), 6-[2-[2-(3-chlorophenyl)-2-hydroxyethylamino]-2-methylethyl]-2H-1,4-benzoxazin-3-(4H)-one]
Mean Energy Expenditure 0-3h (Male Sprague-Dawley rats; 3.6 mg/kg p.o., 0-3h after dosing): 122% | Mean Energy Expenditure 0-21h (Male Sprague-Dawley rats; 3.6 mg/kg p.o., 0-21h after dosing): 106% | Emax [1, 4]: 12% | pEC50 [1, 5]: 5.49 | pEC50 ([2]; Krebs solution at 32°C): 6.62 | Emax [2, 4]: 29%

CC(COc1ccc2c(c1)NC(=O)CO2)NCC(O)COc1ccccc1O (centres unmarked) [Example 5, 6-[2-[3-(2-hydroxyphenoxy)-2-hydroxypropylamino]-2-methylethoxy]-2H-1,4-benzoxazin-3-(4H)-one hemifumarate]
response vs control in vivo at 8.9 mg/kg (Male Sprague-Dawley rats; [6]): 111% | response vs control in vivo at 8.9 mg/kg (Male Sprague-Dawley rats; [7]): 100% | Emax [2, 4]: 18% | pEC50 [2, 5]: 7.46

CC(Cc1ccc2c(c1)NC(=O)CO2)NCC(O)COc1ccccc1O (centres unmarked) [Example 9, 6-[2-[3-(2-hydroxyphenoxy)-2-hydroxypropylamino]-2-methylethyl]-2H-1,4-benzoxazin-3-(4H)-one]
Emax [1, 4]: 12% | pEC50 [1, 5]: 7.55 | Emax [2, 4]: 15% | pEC50 [2, 5]: 7.52

CC(Cc1ccc2c(c1)NC(=O)CO2)NCC(O)c1ccccc1 (centres unmarked) [Example 10, 6-[2-[2-Phenyl-2-hydroxyethylamino]-2-methylethyl]-2H-1,4-benzoxazin-3-(4H)-one]
response vs control in vivo at 32.6 mg/kg (Male Sprague-Dawley rats; [6]): 122% | response vs control in vivo at 32.6 mg/kg (Male Sprague-Dawley rats; [7]): 101%

CC(Cc1ccc2c(c1)NC(=O)CO2)NCC(O)COc1ccccc1 (centres unmarked) [Example 11, 6-[2-[3-Phenoxy-2-hydroxypropylamino]-2-methylethyl]-2H-1,4-benzoxazin-3-(4H)-one]
response vs control in vivo at 7.1 mg/kg (Male Sprague-Dawley rats; [6]): 119% | response vs control in vivo at 7.1 mg/kg (Male Sprague-Dawley rats; [7]): 108% | Emax [1, 4]: 11% | pEC50 [1, 5]: 7.00 | Emax [2, 4]: 32% | pEC50 [2, 5]: 7.28

CC(COc1ccc2c(c1)N(C)C(=O)CO2)NCC(O)c1cccc(Cl)c1 (centres unmarked) [Example 12, 6-[2-[2-(3-Chlorophenyl)-2-hydroxyethylamino]-2-methylethoxy]-4-methyl-2H-1,4-benzoxazin-3-(4H)-one hemifumarate]
response vs control in vivo at 8.9 mg/kg (Male Sprague-Dawley rats; [6]): 109% | response vs control in vivo at 8.9 mg/kg (Male Sprague-Dawley rats; [7]): 97% | Emax [1, 8]: 90% | pEC50 [1, 9]: 6.10 | Emax [2, 8]: 98% | pEC50 [2, 9]: 7.54

CC(Cc1ccc2c(c1)N(C)C(=O)CO2)NCC(O)c1cccc(Cl)c1 (centres unmarked) [Example 13, 6-[2-[2-(3-Chlorophenyl)-2-hydroxyethylamino]-2-methylethyl]-4-methyl-2H-1,4-benzoxazin-3-(4H)-one hemifumarate]
Emax [1, 8]: 54% | pEC50 [1, 9]: 4.82 | Emax [2, 8]: 64% | pEC50 [2, 9]: 6.60

CC(Cc1ccc2c(c1)NC(=O)CO2)NCC(O)COc1ccc(O)cc1 (centres unmarked) [Example 14, 6-[2-[3-(4-Hydroxyphenoxy)-2-hydroxypropylamino]-2-methylethyl]-2H-1,4-benzoxazin-3-(4H)-one]
response vs control in vivo at 3.7 mg/kg (Male Sprague-Dawley rats; [6]): 114% | response vs control in vivo at 3.7 mg/kg (Male Sprague-Dawley rats; [7]): 103% | Emax [1, 4]: 54% | pEC50 [1, 5]: 5.85 | Emax [2, 4]: 87% | pEC50 [2, 5]: 6.40

CC(COc1ccc2c(c1)NC(=O)CO2)NCC(O)c1ccc(O)cc1 (centres unmarked) [Example 15, 6-[2-[2-(4-Hydroxyphenyl)-2-hydroxyethylamino]-2-methylethoxy]-2H-1,4-benzoxazin-3-(4H)-one]
response vs control in vivo at 7.2 mg/kg (Male Sprague-Dawley rats; [6]): 126% | response vs control in vivo at 7.2 mg/kg (Male Sprague-Dawley rats; [7]): 103% | Emax [1, 4]: 88% | pEC50 [1, 5]: 6.80 | Emax [2, 4]: 98% | pEC50 [2, 5]: 7.36

C=CCOc1ccccc1OCC(O)CNC(C)COc1ccc2c(c1)NC(=O)CO2 (centres unmarked) [Example 16, 6-[2-[3-(2-Allyloxyphenoxy)-2-hydroxypropylamino]-2-methyl-ethoxy]-2H-1,4-benzoxazin-3-(4H)-one]
response vs control in vivo at 4.3 mg/kg (Male Sprague-Dawley rats; [6]): 115% | response vs control in vivo at 4.3 mg/kg (Male Sprague-Dawley rats; [7]): 101%

COc1ccccc1OCC(O)CNC(C)COc1ccc2c(c1)NC(=O)CO2 (centres unmarked) [Example 17, 6-[2-[3-(2-Methoxyphenoxy)-2-hydroxypropylamino]-2-methyl-ethoxy]-2H-1,4-benzoxazin-3-(4H)-one]
response vs control in vivo at 4 mg/kg (Male Sprague-Dawley rats; [6]): 112% | response vs control in vivo at 4 mg/kg (Male Sprague-Dawley rats; [7]): 103% | Emax [2, 8]: 91% | pEC50 [2, 9]: 8.07

CC(COc1ccc2c(c1)NC(=O)CO2)NCC(O)COc1ccccc1 (centres unmarked) [Example 18, 6-[2-(2-Hydroxy-3-phenoxypropylamino)-2-methylethoxy]-2H-1,4-benzoxazin-3-(4H)-one]
response vs control in vivo at 3.7 mg/kg (Male Sprague-Dawley rats; [6]): 155% | response vs control in vivo at 3.7 mg/kg (Male Sprague-Dawley rats; [7]): 109% | Emax [2, 4]: 52% | pEC50 [2, 5]: 7.96

CC(COc1ccc2c(c1)NC(=O)CO2)NCC(O)COc1cccc2[nH]ccc12 (centres unmarked) [Example 19, 6-[2-[2-hydroxy-3-(indol-4-yloxy)propylamino]-2-methyl-ethoxy]-2H-1,4-benzoxazin-3-(4H)-one]
response vs control in vivo at 8.2 mg/kg (Male Sprague-Dawley rats; [6]): 116% | response vs control in vivo at 8.2 mg/kg (Male Sprague-Dawley rats; [7]): 114% | Emax [2, 8]: 54% | pEC50 [2, 9]: 6.89

CCc1cccc2cc(C(O)CNC(C)COc3ccc4c(c3)NC(=O)CO4)oc12 (centres unmarked) [Example 20, 6-[2-[2-(7-Ethylbenzofuran-2-yl)-2-hydroxyethylamino]-2-methylethoxy]-2H-1,4-benzoxazin-3-(4H)-one]
response vs control in vivo at 4.1 mg/kg (Male Sprague-Dawley rats; [6]): 110% | response vs control in vivo at 4.1 mg/kg (Male Sprague-Dawley rats; [7]): 107% | Emax [1, 8]: 113% | pEC50 [1, 9]: 6.89 | Emax [2, 8]: 95% | pEC50 [2, 9]: 7.20

CC(COc1ccc2c(c1)NC(=O)CO2)NCC(O)COc1cc(O)cc(O)c1 (centres unmarked) [Example 21, 6-[2-[3-(3,5-Dihydroxyphenoxy)-2-hydroxypropylamino]-2-methylethoxy]-2H-1,4-benzoxazin-3-(4H)-one hemifumarate]
response vs control in vivo at 21.6 mg/kg (Male Sprague-Dawley rats; [6]): 110% | response vs control in vivo at 21.6 mg/kg (Male Sprague-Dawley rats; [7]): 105% | Emax [2, 8]: 85% | pEC50 [2, 9]: 7.80
